{
  "source": "patent US7595173B2",
  "about": "“Low-cost production of peptides” (Dow Global Technologies Inc., priority 2002, dated 2009)",
  "system": "E. coli strain BL21 (DE3)",
  "experiment": "Antimicrobial activity: dose-dependent inhibition of E. coli growth (standard growth inhibition assay)",
  "type": "cell-based",
  "description": "The antimicrobial activity of the cleaved peptides (same samples from Examples 5 and 6) was determined by measuring the dose-dependent inhibition of E. coli growth. The samples were tested for their ability to inhibit the growth of an overnight culture inoculated with E. coli strain BL21 (DE3). AMP samples were diluted serially into water in 96 well plates. Overnight cultures of E. coli BL21 (DE3) cells were diluted 1:50 into LB broth and 250 μl aliquots were transferred into 96-well plates. Each plate was incubated at 37° C. for one hour and then 50 μl of diluted peptide (or water) were added to each well. Each plate was incubated overnight at 37° C. and then the culture density was determined by measuring the apparent absorbance at 600 nm using a Spectromax Plus plate reader.",
  "note": "Entries after “also recorded” stand apart in the source; their conditions may differ. Ends that are not written are not given here.",
  "data": [
    {"sequence": "PFAKKFAKKFKKFAKKFAKFAFAFGD [D2A21 with an additional proline on the N-terminus and a glycine-aspartate dipeptide on its C-terminus]", "values": [
      {"measurement": "antimicrobial activity as compared to the D2A21 core/parent peptide", "result": "equivalent antimicrobial activity; also recorded: did not adversely affect the activity"}
    ]}
  ]
}
